Laboratory results taken from patent US8318953B2, “Reactive coumarin derivatives and their use in cellular analyses” (AAT Bioquest, Inc., priority 2010, dated 2012).

Columns and labels:
intracellular esterases = assay: Relative stability and cleavage by intracellular esterases
Text: Chemically reactive enzyme substrate compounds will covalently attach to a corresponding functional group of cell components, forming the complexes of enzyme substrates-cell components or enzyme products-cell components. Using enzyme substrate compounds to label reactive sites on the surface of cells, in cell membranes or in intracellular compartments such as organelles, or in the cell's cytoplasm, permits the determination of their presence or quantity, accessibility, or their spatial and temporal distribution in the sample. […] Photoreactive enzyme substrates can be used similarly to photolabel components of the outer membrane of biological cells or as photo-fixable polar tracers for cells.

CPA cells = assay: Absorption and emission spectra of cell lysates after incubating cells with the substrate; assay type: cell-based; settings: CPA cells incubated with compound (5 μM) for 1 h, lysed with 1% Triton X-100; pH=9.0 buffer
Experimental: CPA cells are incubated with Compound ES1 (5 μM) for 1 h, and lysed with 1% Triton® X-100. The cell lysates from the enzymatic hydrolysis of Compound ES1 have a maximum absorption around 409 nm, which matches very well the 405 nm violet laser excitation of a typical flow cytometer.
CPA cells are incubated with Compound ES7 (5 μM) for 1 h, and lysed with 1% Triton® X-100. The cell lysates from the enzymatic hydrolysis of ES7 have a maximum absorption around 416 nm, which matches very well the 405 nm violet laser excitation of a typical flow cytometer.

Jurkat cells = assay: Flow cytometric monitoring of cell proliferation after dye loading; assay type: cell-based; settings: Jurkat cells loaded with 5 μM dye loading solution at 37° C. for 1 hour; flow cytometric analysis
Experimental: Compound ES 9 is dissolved in anhydrous DMSO to make 5 mM stock solution, and diluted in PBS buffer to make 5 μM dye loading solution. Jurkat cells are loaded with the dye loading solution of Compound ES9 at 37° C. for 1 hour. The cells are washed with PBS buffer to remove serum. The resulted cells are cultured and passed for flow cytometric analysis as desired. Compound ES9 is used to monitor cell proliferation of nine passages.
ES compounds are retained by cells and shared by the daughter cells at each division, resulting in multimodal flow cytometric ES staining histograms, with each cell generation clustering around half the fluorescence intensity of the previous one. ES compounds are dissolved in anhydrous DMSO, and the stock solutions are used promptly. To prepare the cell working solutions (from 1 to 100 μM) the DMSO stock solutions of ES compounds are diluted with Hanks and 20 mM Hepes buffer (HHBS, pH 7 with 0.02% PF-127). The Jurkat cells are treated with test compounds for a desired period of time, and centrifuged give 1-5×10^5 cells per tube. The cells are resuspended in 500 μL of the ES compound working solutions, and incubated at room temperature or 37° C. for 5 to 10 min. […] The fluorescence of ES compound staining are monitored at Ex/Em=405/450 nm, 405/500 nm or 405/550 nm with a fluorescence microscope or a flow cytometer.

stability relative to Compound ES 18 (intracellular esterases) | Compound | further results
more stable than Compound ES 18 | CC(=O)OCOc1c(Cl)cc2cc(C(=O)ON3C(=O)CCC3=O)c(=O)oc2c1Cl [Compound 5] | 
more stable than Compound ES 18 | CC(=O)Oc1cc2oc(=O)c(-c3ccc(CCCCCC(=O)ON4C(=O)CCC4=O)s3)cc2cc1Cl [Compound 9] | 
more stable than Compound ES 18 | CC(=O)Oc1cc2oc(=O)c(-c3ccc(CCCCCC(=O)NCCN4C(=O)C=CC4=O)s3)cc2cc1Cl [Compound 10] | 
more stable than Compound ES 18 | CC(=O)Oc1cc2oc(=O)c(C(=O)ON3C(=O)CCC3=O)cc2cc1Cl [ES1] | maximum absorption of cell lysates from the enzymatic hydrolysis (CPA cells): around 409 nm
 | CC(=O)Oc1c(Cl)cc2cc(C(=O)NCCCCCN3C(=O)C=CC3=O)c(=O)oc2c1F [ES7] | maximum absorption of cell lysates from the enzymatic hydrolysis (CPA cells): around 416 nm
 | CC(=O)Oc1cc2oc(=O)c(-c3ccc(CCCCCC(=O)ON4C(=O)CCC4=O)s3)cc2cc1Cl [ES9] | passages over which cell proliferation is monitored (Jurkat cells): nine
 | CC(=O)Oc1c(F)cc2cc(C(=O)ON3C(=O)CCC3=O)c(=O)oc2c1F [ES18] | cleavage by intracellular esterases (intracellular esterases): cleaved by intracellular esterases more slowly
